Legend:
[1] = target: T1, Broad substrate specificity ATP-binding cassette transporter ABCG2 (Mus musculus, UniProt Q7TMS5); assay: TP_TRANSPORTER: drug resistance in BCRP-expressing MEF3.8 cells; assay type: functional, cell-based
T1 sequence (Q7TMS5 whole entry): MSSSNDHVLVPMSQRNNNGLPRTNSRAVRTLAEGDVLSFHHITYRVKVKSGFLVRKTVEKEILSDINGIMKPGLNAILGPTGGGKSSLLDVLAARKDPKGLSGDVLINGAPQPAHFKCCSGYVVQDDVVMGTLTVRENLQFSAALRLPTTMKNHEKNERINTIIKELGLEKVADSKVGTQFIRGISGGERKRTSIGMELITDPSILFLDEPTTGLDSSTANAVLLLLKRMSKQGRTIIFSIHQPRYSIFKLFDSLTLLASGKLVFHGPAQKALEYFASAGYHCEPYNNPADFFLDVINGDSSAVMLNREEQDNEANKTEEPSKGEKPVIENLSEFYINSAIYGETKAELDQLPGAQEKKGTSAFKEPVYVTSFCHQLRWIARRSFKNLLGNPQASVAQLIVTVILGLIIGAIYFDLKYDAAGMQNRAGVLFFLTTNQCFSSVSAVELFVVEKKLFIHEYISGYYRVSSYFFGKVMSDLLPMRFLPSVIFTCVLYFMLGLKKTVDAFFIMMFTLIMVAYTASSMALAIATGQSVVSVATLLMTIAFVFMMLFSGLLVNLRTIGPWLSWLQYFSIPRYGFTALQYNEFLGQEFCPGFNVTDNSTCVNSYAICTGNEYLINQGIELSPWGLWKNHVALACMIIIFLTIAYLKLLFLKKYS

[2] = target: T1, Broad substrate specificity ATP-binding cassette transporter ABCG2; assay: TP_TRANSPORTER: transepithelial transport (basal to apical) in BCRP-expressing MDCKII cells; assay type: functional, cell-based; conditions: dog, mdck-ii

| SMILES | Activity [1] | Activity [2] |
| --- | --- | --- |
| C(=N\NC1=NCCN1)/c1c2ccccc2c(/C=N/NC2=NCCN2)c2ccccc12 [BISANTRENE] | substrate [] | – |
| COc1cccc2c1C(=O)c1c(O)c3c(c(O)c1C2=O)C[C@@](O)(C(=O)CO)C[C@@H]3O[C@H]1C[C@H](N)[C@H](O)[C@H](C)O1 [DOXORUBICIN] | substrate [] | – |
| COc1cc([C@@H]2c3cc4c(cc3[C@@H](O[C@@H]3O[C@@H]5CO[C@@H](C)O[C@H]5[C@H](O)[C@H]3O)[C@H]3COC(=O)[C@H]23)OCO4)cc(OC)c1O [ETOPOSIDE] | substrate [] | substrate [] |
| O=C1c2c(O)ccc(O)c2C(=O)c2c(NCCNCCO)ccc(NCCNCCO)c21 [MITOXANTRONE] | substrate [] | – |
| COc1cc([C@@H]2c3cc4c(cc3[C@@H](O[C@@H]3O[C@@H]5CO[C@@H](c6cccs6)O[C@H]5[C@H](O)[C@H]3O)[C@H]3COC(=O)[C@H]23)OCO4)cc(OC)c1O [TENIPOSIDE] | substrate [] | – |
| CC[C@@]1(O)C(=O)OCc2c1cc1n(c2=O)Cc2cc3c(CN(C)C)c(O)ccc3nc2-1 [TOPOTECAN] | substrate [] | – |
| CC[C@]1(O)C[C@H]2CN(CCc3c([nH]c4ccccc34)[C@@](C(=O)OC)(c3cc4c(cc3OC)N(C=O)[C@H]3[C@@](O)(C(=O)OC)[C@H](OC(C)=O)[C@]5(CC)C=CCN6CC[C@]43[C@@H]65)C2)C1 [VINCRISTINE] | substrate [] | – |
